# Columns and labels:
# Type in all cases: in vivo
# Avena fatua [1] = assay: greenhouse pre-emergence treatment, AVEFA; conditions: AVEFA, trifludimoxazin solo 36 gai/ha, 20 DAT
# Source text: (§1) The culture containers used were plastic pots containing loamy sand with approximately 3.0% of humus as substrate. The seeds of the test plants were sown separately for each species.
# (§2) For the pre-emergence treatment, the active compounds, suspended or emulsified in water, were applied directly after sowing by means of finely distributing nozzles. The containers were irrigated gently to promote germination and growth and subsequently covered with transparent plastic hoods until the plants had rooted. This cover caused uniform germination of the test plants unless this was adversely affected by the active compounds.
# (§3) Depending on the species, the plants were kept at 10-25° C. and 20-35° C., respectively.
# (§4) The test period extended over 2 to 4 weeks. During this time, the plants were tended and their response to the individual treatments was evaluated.
# (§5) Evaluation was carried out using a scale from 0 to 100. 100 means no emergence of the plants, or complete destruction of at least the above-ground parts, and 0 means no damage or normal course of growth. A good herbicidal activity is given at values of at least 70, and very good herbicidal activity is given at values of at least 85.
# (§6) The respective stated components A and B, and if appropriate, C were formulated as a 10% by weight strength emulsion concentrate and, with addition of the amount of solvent system, introduced into the spray liquor used for applying the active compound. In the examples, the solvent used was water.
# (§7) In the examples below, using the method of S. R. Colby (1967) “Calculating synergistic and antagonistic responses of herbicide combinations”, Weeds 15, p. 22ff., the value E, which is expected if the activity of the individual active compounds is only additive, was calculated. E=X+Y−(X·Y/100) where X=effect in percent using herbicide A at an application rate a; • Y=effect in percent using herbicide B at application rate b; • E=expected effect (in %) of herbicide A+herbicide B at application rates a+b.
# Helianthus annuus = assay: greenhouse pre-emergence treatment, HELAN; conditions: 20 DAT, HELAN
# Source text: as §1, §2, §3, §4, §5, §6, §7
# Lolium multiflorum [2] = assay: greenhouse pre-emergence treatment, LOLMU; conditions: LOLMU, trifludimoxazin solo 36 gai/ha, 20 DAT
# Source text: as §1, §2, §3, §4, §5, §6, §7
# Setaria viridis [3] = assay: greenhouse pre-emergence treatment, SETVI; conditions: 4.5 gai/ha (SC 500 g/l), 20 DAT, SETVI, Table X2
# Source text: as §1, §2, §3, §4, §5, §6, §7
# Galium aparine [4] = assay: greenhouse pre-emergence treatment, GALAP; conditions: 20 DAT, GALAP; for % activity, solo application: Table X2
# Source text: as §1, §2, §3, §4, §5, §6, §7
# Digitaria sanguinalis [5] = assay: greenhouse pre-emergence treatment, DIGSA; conditions: 4.5 gai/ha (SC 500 g/l), 20 DAT, DIGSA, Table X2
# Source text: as §1, §2, §3, §4, §5, §6, §7
# Brachiaria decumbens [6] = assay: greenhouse pre-emergence treatment, BRADC; conditions: 20 DAT, BRADC
# Source text: as §1, §2, §3, §4, §5, §6, §7
# Ambrosia elatior [7] = assay: greenhouse pre-emergence treatment, AMBEL; conditions: 20 DAT, AMBEL, Table X2
# Source text: as §1, §2, §3, §4, §5, §6, §7
# Poa annua = assay: greenhouse post-emergence treatment, POAAN; conditions: Poa annua, 504 h, pyroxasulfone solo 15 gai/ha, 21 DAT, POAAN
# Procedure, shortened: (§8)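 Plants in loamy sand (~3.0% humus) were sprayed post-emergence at 3–15 cm height with actives in a water spray liquor made from 10% by weight emulsion concentrates. Plants were kept at 10-25° C. or 20-35° C. by species and rated over 2–4 weeks on a 0–100 scale (100 = complete destruction). Colby's E = X+Y−(X·Y/100) gave the expected additive effect.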
# Alopecurus myosuroides = assay: greenhouse post-emergence treatment, ALOMY; conditions: Alopecurus myosuroides, 504 h, 21 DAT, ALOMY
# Procedure, shortened: (§9)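 Scoring used a 0 to 100 scale, with 100 denoting no emergence or full destruction of at least the above-ground parts, recorded within a 2 to 4 week test period. Test plants grew in loamy sand containing about 3.0% humus at 10-25° C. or 20-35° C., after direct sowing or transplanting, and received water-based treatments post-emergence.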
# Papaver rhoeas = assay: greenhouse post-emergence treatment, PAPRH; conditions: Papaver rhoeas, 504 h, PAPRH, 21 DAT
# Procedure, shortened: (§10)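 Scale 0–100 damage rating (100 = complete destruction of above-ground parts, 0 = normal growth), read 2 to 4 weeks after post-emergence application of aqueous spray liquor to plants 3–15 cm tall.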
# Avena fatua [8] = assay: greenhouse post-emergence treatment, AVEFA; conditions: Avena fatua, 504 h, 21 DAT, AVEFA
# Procedure, shortened: as §9
# Matricaria chamomilla = assay: greenhouse post-emergence treatment, MATCH; conditions: Matricaria chamomilla, 504 h, MATCH, 21 DAT
# Procedure, shortened: as §10
# Lolium multiflorum [9] = assay: greenhouse post-emergence treatment, LOLMU; conditions: Lolium multiflorum, 504 h, 21 DAT, LOLMU
# Procedure, shortened: as §9
# Polygonum convolvulus = assay: greenhouse post-emergence treatment, POLCO; conditions: Fallopia convolvulus, 504 h, POLCO, 21 DAT
# Procedure, shortened: as §10
# Setaria viridis [10] = assay: greenhouse post-emergence treatment, SETVI; conditions: Setaria viridis, 504 h, SETVI, solo pyroxasulfone (WG 85%) 15 gai/ha, 21 DAT
# Procedure, shortened: as §9
# Galium aparine [11] = assay: greenhouse post-emergence treatment, GALAP; conditions: Galium aparine, 504 h, GALAP, 21 DAT
# Procedure, shortened: as §10
# Stellaria media = assay: greenhouse post-emergence treatment, STEME; conditions: Stellaria media, 504 h, pyroxasulfone solo 30 gai/ha, 21 DAT, STEME
# Procedure, shortened: as §8
# Echinocloa crus-galli = assay: greenhouse post-emergence treatment, ECHCG; conditions: Echinochloa crus-galli, 504 h, pyroxasulfone solo 60 gai/ha, 21 DAT, ECHCG, read-out: % activity
# Protocol: as §1
# (§11) For the post-emergence treatment, the test plants were grown to a plant height of from 3 to 15 cm, depending on the plant habit, and only then treated with the active compounds which had been suspended or emulsified in water. To this end, the test plants were either sown directly, and grown in the same containers, or they were first grown separately as seedlings and transplanted into the test containers a few days prior to treatment.
# as §3, §4, §5, §6, §7
# Digitaria sanguinalis [12] = assay: greenhouse post-emergence treatment, DIGSA; conditions: Digitaria sanguinalis, 504 h, DIGSA, 21 DAT
# Procedure, shortened: as §9
# Bromus sterilis = assay: greenhouse post-emergence treatment, BROST; conditions: Bromus sterilis, 504 h, 21 DAT, BROST
# Procedure, shortened: as §9
# Brachiaria decumbens [13] = assay: greenhouse post-emergence treatment, BRADC; conditions: Urochloa decumbens, 504 h, 21 DAT, BRADC
# Procedure, shortened: as §8
# Ambrosia elatior [14] = assay: greenhouse post-emergence treatment, AMBEL; conditions: Ambrosia artemisiifolia, 504 h, 21 DAT, AMBEL
# Protocol: as §1, §11, §3, §4, §5, §6, §7
# [15] = solo pyroxasulfone (WG 85%) 7.5 gai/ha
# [16] = solo pyroxasulfone (WG 85%) 15 gai/ha
# [17] = solo pyroxasulfone (WG 85%) 30 gai/ha
# [18] = solo pyroxasulfone (WG 85%) 60 gai/ha
smiles,measurement,setting,value
C#CCN1C(=O)C(F)(F)Oc2cc(F)c(-n3c(=O)n(C)c(=S)n(C)c3=O)cc21 [trifludimoxazin],% activity,Avena fatua [1],50%
same,"% activity, solo application","Helianthus annuus; 18 gai/ha (SC 500 g/l), Table X2",0%
same,% activity,Helianthus annuus; trifludimoxazin solo 18 gai/ha,0%
same,% activity,Helianthus annuus; trifludimoxazin solo 36 gai/ha,30%
same,% activity,Lolium multiflorum [2],75%
same,"% activity, solo application",Setaria viridis [3],75%
same,"% activity, solo application",Galium aparine [4]; 4.5 gai/ha (SC 500 g/l),0%
same,"% activity, solo application",Galium aparine [4]; 9 gai/ha (SC 500 g/l),0%
same,"% activity, solo application",Galium aparine [4]; 18 gai/ha (SC 500 g/l),0%
same,"% activity, solo application",Galium aparine [4]; 36 gai/ha (SC 500 g/l),40%
same,% activity,Galium aparine [4]; trifludimoxazin solo 4.5 gai/ha,0%
same,% activity,Galium aparine [4]; trifludimoxazin solo 9 gai/ha,0%
same,% activity,Galium aparine [4]; trifludimoxazin solo 18 gai/ha,0%
same,% activity,Galium aparine [4]; trifludimoxazin solo 36 gai/ha,40%
same,"% activity, solo application",Digitaria sanguinalis [5],50%
same,"% activity, solo application","Brachiaria decumbens [6]; 9 gai/ha (SC 500 g/l), Table X2",45%
same,% activity,Brachiaria decumbens [6]; trifludimoxazin solo 18 gai/ha,50%
same,% activity,Brachiaria decumbens [6]; trifludimoxazin solo 36 gai/ha,80%
same,"% activity, solo application",Ambrosia elatior [7]; 4.5 gai/ha (SC 500 g/l),0%
same,"% activity, solo application",Ambrosia elatior [7]; 9 gai/ha (SC 500 g/l),50%
Cn1nc(C(F)(F)F)c(CS(=O)(=O)C2=NOC(C)(C)C2)c1OC(F)F [pyroxasulfone],inhibition at 15 g/ha,Poa annua,70%
same,inhibition at […],Alopecurus myosuroides; pyroxasulfone solo 7.5 gai/ha,35%
same,inhibition at 30 g/ha,Alopecurus myosuroides; pyroxasulfone solo 30 gai/ha,65%
same,pest or weed control at […],Papaver rhoeas; [15],0%
same,pest or weed control at 15 g/ha,Papaver rhoeas; [16],0%
same,pest or weed control at 30 g/ha,Papaver rhoeas; [17],30%
same,pest or weed control at 60 g/ha,Papaver rhoeas; [18],60%
same,inhibition at 15 g/ha,Papaver rhoeas; pyroxasulfone solo 15 gai/ha,0%
same,inhibition at 60 g/ha,Papaver rhoeas; pyroxasulfone solo 60 gai/ha,60%
same,inhibition at […],Avena fatua [8]; pyroxasulfone solo 7.5 gai/ha,25%
same,inhibition at 15 g/ha,Avena fatua [8]; pyroxasulfone solo 15 gai/ha,30%
same,pest or weed control at 15 g/ha,Matricaria chamomilla; [16],0%
same,inhibition at 15 g/ha,Matricaria chamomilla; pyroxasulfone solo 15 gai/ha,0%
same,inhibition at […],Lolium multiflorum [9]; pyroxasulfone solo 7.5 gai/ha,40%
same,inhibition at 15 g/ha,Lolium multiflorum [9]; pyroxasulfone solo 15 gai/ha,65%
same,inhibition at 30 g/ha,Lolium multiflorum [9]; pyroxasulfone solo 30 gai/ha,70%
same,pest or weed control at […],Polygonum convolvulus; [15],30%
same,pest or weed control at 15 g/ha,Polygonum convolvulus; [16],30%
same,pest or weed control at 30 g/ha,Polygonum convolvulus; [17],30%
same,pest or weed control at 60 g/ha,Polygonum convolvulus; [18],30%
same,inhibition at […],Polygonum convolvulus; pyroxasulfone solo 7.5 gai/ha,30%
same,inhibition at 15 g/ha,Polygonum convolvulus; pyroxasulfone solo 15 gai/ha,30%
same,inhibition at 30 g/ha,Polygonum convolvulus; pyroxasulfone solo 30 gai/ha,30%
same,inhibition at 60 g/ha,Polygonum convolvulus; pyroxasulfone solo 60 gai/ha,30%
same,pest or weed control at 15 g/ha,Setaria viridis [10],40%
same,pest or weed control at 15 g/ha,Galium aparine [11]; [16],70%
same,inhibition at […],Galium aparine [11]; pyroxasulfone solo 7.5 gai/ha,40%
same,inhibition at 30 g/ha,Stellaria media,0%
same,inhibition at 60 g/ha,Echinocloa crus-galli,80%
same,pest or weed control at […],Digitaria sanguinalis [12]; [15],0%
same,pest or weed control at 15 g/ha,Digitaria sanguinalis [12]; [16],0%
same,inhibition at […],Bromus sterilis; pyroxasulfone solo 7.5 gai/ha,20%
same,inhibition at 15 g/ha,Bromus sterilis; pyroxasulfone solo 15 gai/ha,40%
same,inhibition at […],Brachiaria decumbens [13]; pyroxasulfone solo 7.5 gai/ha,0%
same,inhibition at 30 g/ha,"Brachiaria decumbens [13]; pyroxasulfone solo 30 gai/ha, read-out: % activity",55%
same,inhibition at 60 g/ha,"Brachiaria decumbens [13]; pyroxasulfone solo 60 gai/ha, read-out: % activity",75%
same,inhibition at 30 g/ha,Ambrosia elatior [14]; pyroxasulfone solo 30 gai/ha,20%
same,inhibition at 60 g/ha,Ambrosia elatior [14]; pyroxasulfone solo 60 gai/ha,60%
